Measured values from ChEMBL document CHEMBL4804281, “STK4 inhibitors for treatment of hematologic malignancies” (2020).
The source made the active and inactive calls. The calls are words filed in the database; no cut-off is given here.

Legend:
[1] = target: Cyclin-dependent kinase 8 (Homo sapiens) (UniProt P49336); test: Inhibition of CDK8 in human NCI-H929 cells at 10 uM by mass spectroscopic analysis relative to control; format: cell-based
[2] = target: T1, Aurora kinase C (Homo sapiens) (UniProt Q9UQB9); test: Inhibition of AURC in human NCI-H929 cells at 10 uM by mass spectroscopic analysis relative to control; format: cell-based
T1 sequence (whole entry): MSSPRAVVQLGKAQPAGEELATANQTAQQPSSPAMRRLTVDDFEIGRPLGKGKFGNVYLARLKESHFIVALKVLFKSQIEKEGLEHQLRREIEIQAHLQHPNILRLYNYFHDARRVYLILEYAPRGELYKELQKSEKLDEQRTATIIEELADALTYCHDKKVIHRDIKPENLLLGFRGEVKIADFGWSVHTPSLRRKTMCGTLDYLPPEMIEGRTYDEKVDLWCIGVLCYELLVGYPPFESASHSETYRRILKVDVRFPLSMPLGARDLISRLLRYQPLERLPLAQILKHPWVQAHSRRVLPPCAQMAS

[3] = target: DNA-dependent protein kinase catalytic subunit (Homo sapiens) (UniProt P78527); test: Inhibition of DNAPK in human NCI-H929 cells at 10 uM by mass spectroscopic analysis relative to control; format: cell-based
[4] = system: MM1.S; test: Downregulation of phosphorylated-MOB1 protein level in human MM1.S cells at 1 to 10 uM measured after 6 hrs by Western blot analysis; format: functional, cell-based; settings: dose 1-10 µM
[5] = target: Serine/threonine-protein kinase 25 (Homo sapiens) (UniProt O00506); test: Inhibition of YSK1 in human NCI-H929 cells at 10 uM by mass spectroscopic analysis relative to control; format: cell-based
[6] = target: 5'-AMP-activated protein kinase catalytic subunit alpha-2 (Homo sapiens) (UniProt P54646); test: Inhibition of AMPKa2 in human NCI-H929 cells at 10 uM by mass spectroscopic analysis relative to control; format: cell-based
Sequence of 5'-AMP-activated protein kinase catalytic subunit alpha-2 (Homo sapiens) (P54646 whole entry, looked up): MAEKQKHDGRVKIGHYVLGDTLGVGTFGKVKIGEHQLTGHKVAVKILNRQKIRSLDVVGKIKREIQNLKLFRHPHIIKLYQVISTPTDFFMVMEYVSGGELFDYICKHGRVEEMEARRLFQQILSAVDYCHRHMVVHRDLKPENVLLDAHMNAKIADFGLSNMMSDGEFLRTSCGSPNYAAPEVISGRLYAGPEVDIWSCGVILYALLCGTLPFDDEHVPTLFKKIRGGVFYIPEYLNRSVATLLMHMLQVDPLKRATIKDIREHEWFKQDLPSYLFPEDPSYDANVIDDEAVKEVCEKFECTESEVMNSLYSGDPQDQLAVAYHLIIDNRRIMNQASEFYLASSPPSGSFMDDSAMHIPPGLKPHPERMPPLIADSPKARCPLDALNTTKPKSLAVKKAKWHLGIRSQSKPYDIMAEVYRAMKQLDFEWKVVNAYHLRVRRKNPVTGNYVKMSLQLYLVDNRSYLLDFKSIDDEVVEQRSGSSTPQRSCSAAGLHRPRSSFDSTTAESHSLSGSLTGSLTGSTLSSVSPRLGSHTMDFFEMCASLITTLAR

[7] = target: Cyclin-dependent kinase 19 (Homo sapiens) (UniProt Q9BWU1); test: Inhibition of CDK11 in human NCI-H929 cells at 10 uM by mass spectroscopic analysis relative to control; format: cell-based
Sequence of Cyclin-dependent kinase 19 (Homo sapiens) (Q9BWU1 whole entry): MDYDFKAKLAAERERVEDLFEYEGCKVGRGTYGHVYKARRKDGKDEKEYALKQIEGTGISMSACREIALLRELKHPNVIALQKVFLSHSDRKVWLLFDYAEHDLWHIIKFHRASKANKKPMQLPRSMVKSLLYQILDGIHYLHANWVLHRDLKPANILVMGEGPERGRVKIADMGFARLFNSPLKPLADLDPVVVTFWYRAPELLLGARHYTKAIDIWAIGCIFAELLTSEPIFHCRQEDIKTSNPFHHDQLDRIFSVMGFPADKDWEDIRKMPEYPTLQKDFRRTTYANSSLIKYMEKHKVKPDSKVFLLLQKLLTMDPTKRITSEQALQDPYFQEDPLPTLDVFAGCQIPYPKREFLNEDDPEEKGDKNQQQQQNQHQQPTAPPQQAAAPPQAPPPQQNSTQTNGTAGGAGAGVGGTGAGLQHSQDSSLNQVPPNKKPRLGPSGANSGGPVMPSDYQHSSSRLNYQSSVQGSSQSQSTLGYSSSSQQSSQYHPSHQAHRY

[8] = target: T2, Serine/threonine-protein kinase 3 (Homo sapiens) (UniProt Q13188); test: Inhibition of STK3 (unknown origin) using fluorescein-labelled Ser/Thr-07 peptide as substrate incubated for 1 hr in presence of ATP at Km concentration by Z-LYTE assay
T2 sequence (whole entry): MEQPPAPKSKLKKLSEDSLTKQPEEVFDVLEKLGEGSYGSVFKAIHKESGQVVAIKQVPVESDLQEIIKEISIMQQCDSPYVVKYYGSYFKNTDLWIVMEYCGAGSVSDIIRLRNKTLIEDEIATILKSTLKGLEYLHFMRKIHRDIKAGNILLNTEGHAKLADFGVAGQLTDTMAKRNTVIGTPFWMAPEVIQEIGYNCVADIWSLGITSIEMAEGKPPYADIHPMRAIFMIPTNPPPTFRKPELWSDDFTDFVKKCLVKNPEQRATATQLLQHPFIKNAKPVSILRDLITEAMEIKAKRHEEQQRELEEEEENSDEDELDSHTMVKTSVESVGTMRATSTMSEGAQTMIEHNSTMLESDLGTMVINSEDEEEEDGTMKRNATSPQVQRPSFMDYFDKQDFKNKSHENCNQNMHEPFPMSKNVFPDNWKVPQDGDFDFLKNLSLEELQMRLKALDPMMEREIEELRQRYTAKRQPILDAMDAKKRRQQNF

[9] = target: 5'-AMP-activated protein kinase catalytic subunit alpha-1 (Homo sapiens) (UniProt Q13131); test: Inhibition of AMPKa1 in human NCI-H929 cells at 10 uM by mass spectroscopic analysis relative to control; format: cell-based
[10] = target: RAC-gamma serine/threonine-protein kinase (Homo sapiens) (UniProt Q9Y243); test: Inhibition of AKT3 in human NCI-H929 cells at 10 uM by mass spectroscopic analysis relative to control; format: cell-based
[11] = target: T3, TGF-beta receptor type-1 (Homo sapiens) (UniProt P36897); test: Inhibition of TGFBR1 in human NCI-H929 cells at 10 uM by mass spectroscopic analysis relative to control; format: cell-based
T3 sequence (whole entry): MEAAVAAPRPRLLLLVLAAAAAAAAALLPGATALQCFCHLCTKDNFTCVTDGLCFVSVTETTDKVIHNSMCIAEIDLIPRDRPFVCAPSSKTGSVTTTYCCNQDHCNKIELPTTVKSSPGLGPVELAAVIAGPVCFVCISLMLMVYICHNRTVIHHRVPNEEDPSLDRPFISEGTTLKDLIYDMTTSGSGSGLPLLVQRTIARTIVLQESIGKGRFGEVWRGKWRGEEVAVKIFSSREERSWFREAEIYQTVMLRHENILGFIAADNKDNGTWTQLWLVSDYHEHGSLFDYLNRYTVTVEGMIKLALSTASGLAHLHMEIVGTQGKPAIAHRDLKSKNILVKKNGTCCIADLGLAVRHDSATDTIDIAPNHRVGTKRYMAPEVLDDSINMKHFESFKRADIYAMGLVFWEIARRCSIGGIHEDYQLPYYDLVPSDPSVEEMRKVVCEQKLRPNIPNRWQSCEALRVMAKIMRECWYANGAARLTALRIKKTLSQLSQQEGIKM

[12] = target: Dual specificity mitogen-activated protein kinase kinase 2 (Homo sapiens) (UniProt P36507); test: Inhibition of MAP2K2 in human NCI-H929 cells at 10 uM by mass spectroscopic analysis relative to control; format: cell-based
Sequence of Dual specificity mitogen-activated protein kinase kinase 2 (Homo sapiens) (P36507 whole entry): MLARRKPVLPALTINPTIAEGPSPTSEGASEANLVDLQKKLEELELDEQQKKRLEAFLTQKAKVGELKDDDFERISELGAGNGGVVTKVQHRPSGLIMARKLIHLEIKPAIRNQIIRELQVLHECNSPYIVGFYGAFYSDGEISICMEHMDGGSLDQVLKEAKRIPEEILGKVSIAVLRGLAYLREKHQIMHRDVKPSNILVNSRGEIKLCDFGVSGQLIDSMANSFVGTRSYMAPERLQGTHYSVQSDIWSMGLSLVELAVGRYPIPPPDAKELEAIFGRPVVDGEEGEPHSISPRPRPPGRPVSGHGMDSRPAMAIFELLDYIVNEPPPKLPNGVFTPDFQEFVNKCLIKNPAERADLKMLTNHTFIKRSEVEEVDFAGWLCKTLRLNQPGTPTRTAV

[13] = target: Cyclin-dependent kinase 17 (Homo sapiens) (UniProt Q00537); test: Inhibition of PCTAIRE2 in human NCI-H929 cells at 10 uM by mass spectroscopic analysis relative to control; format: cell-based
[14] = target: Bone morphogenetic protein receptor type-1B (Homo sapiens) (UniProt O00238); test: Inhibition of BMPR1B in human NCI-H929 cells at 10 uM by mass spectroscopic analysis relative to control; format: cell-based
[15] = target: Microtubule-associated serine/threonine-protein kinase 2 (Homo sapiens) (UniProt Q6P0Q8); test: Inhibition of MAST2 in human NCI-H929 cells at 10 uM by mass spectroscopic analysis relative to control; format: cell-based
Sequence of Microtubule-associated serine/threonine-protein kinase 2 (Homo sapiens) (Q6P0Q8 whole entry): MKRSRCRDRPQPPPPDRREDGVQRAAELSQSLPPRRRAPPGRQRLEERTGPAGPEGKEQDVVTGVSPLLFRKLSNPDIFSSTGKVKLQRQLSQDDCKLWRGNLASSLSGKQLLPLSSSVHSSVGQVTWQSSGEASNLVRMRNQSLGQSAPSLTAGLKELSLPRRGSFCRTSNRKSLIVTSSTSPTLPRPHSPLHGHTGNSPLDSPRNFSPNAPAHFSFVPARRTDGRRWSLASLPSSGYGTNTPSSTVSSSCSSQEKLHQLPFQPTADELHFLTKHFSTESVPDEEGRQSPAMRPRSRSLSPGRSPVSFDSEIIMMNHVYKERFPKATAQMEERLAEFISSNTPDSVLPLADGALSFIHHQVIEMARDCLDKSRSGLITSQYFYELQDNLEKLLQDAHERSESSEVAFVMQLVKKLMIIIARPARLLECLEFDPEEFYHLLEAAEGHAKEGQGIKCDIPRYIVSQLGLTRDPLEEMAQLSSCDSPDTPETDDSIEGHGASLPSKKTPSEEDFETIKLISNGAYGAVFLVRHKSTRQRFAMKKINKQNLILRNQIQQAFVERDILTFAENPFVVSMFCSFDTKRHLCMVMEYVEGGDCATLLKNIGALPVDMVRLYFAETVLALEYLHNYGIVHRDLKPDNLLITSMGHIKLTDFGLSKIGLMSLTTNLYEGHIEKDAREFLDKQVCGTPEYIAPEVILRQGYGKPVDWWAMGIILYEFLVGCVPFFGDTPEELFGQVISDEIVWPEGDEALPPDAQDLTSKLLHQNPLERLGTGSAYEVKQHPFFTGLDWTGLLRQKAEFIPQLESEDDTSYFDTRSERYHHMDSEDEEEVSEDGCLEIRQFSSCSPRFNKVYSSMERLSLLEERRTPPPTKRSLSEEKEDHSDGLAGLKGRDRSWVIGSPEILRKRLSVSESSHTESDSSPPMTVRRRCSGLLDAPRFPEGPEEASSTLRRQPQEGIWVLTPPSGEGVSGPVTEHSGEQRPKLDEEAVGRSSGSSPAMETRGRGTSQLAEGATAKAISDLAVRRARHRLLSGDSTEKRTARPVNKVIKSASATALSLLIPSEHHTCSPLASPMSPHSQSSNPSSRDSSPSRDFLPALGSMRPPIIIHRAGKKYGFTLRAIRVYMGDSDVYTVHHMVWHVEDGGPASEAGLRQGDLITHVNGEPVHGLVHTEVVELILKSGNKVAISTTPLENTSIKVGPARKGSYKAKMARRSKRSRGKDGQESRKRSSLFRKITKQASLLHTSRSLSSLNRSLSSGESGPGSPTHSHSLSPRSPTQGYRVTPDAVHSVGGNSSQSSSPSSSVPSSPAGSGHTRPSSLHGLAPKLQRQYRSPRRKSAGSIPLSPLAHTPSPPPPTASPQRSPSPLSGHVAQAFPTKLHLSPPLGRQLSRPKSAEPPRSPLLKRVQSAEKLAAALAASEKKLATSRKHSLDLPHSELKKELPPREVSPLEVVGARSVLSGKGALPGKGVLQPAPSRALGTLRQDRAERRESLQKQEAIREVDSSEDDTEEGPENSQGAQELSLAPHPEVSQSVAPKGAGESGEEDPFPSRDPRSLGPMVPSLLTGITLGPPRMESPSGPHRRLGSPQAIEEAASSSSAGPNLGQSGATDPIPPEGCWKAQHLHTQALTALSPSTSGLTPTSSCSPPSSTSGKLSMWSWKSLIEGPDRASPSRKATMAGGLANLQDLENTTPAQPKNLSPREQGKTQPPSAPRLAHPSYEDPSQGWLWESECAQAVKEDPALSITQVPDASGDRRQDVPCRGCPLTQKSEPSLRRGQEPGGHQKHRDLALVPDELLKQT

[16] = target: Cyclin-dependent kinase 18 (Homo sapiens) (UniProt Q07002); test: Inhibition of PCTAIRE3 in human NCI-H929 cells at 10 uM by mass spectroscopic analysis relative to control; format: cell-based
[17] = target: Microtubule-associated serine/threonine-protein kinase 1 (Homo sapiens) (UniProt Q9Y2H9); test: Inhibition of MAST1 in human NCI-H929 cells at 10 uM by mass spectroscopic analysis relative to control; format: cell-based
Sequence of Microtubule-associated serine/threonine-protein kinase 1 (Homo sapiens) (Q9Y2H9 whole entry, looked up): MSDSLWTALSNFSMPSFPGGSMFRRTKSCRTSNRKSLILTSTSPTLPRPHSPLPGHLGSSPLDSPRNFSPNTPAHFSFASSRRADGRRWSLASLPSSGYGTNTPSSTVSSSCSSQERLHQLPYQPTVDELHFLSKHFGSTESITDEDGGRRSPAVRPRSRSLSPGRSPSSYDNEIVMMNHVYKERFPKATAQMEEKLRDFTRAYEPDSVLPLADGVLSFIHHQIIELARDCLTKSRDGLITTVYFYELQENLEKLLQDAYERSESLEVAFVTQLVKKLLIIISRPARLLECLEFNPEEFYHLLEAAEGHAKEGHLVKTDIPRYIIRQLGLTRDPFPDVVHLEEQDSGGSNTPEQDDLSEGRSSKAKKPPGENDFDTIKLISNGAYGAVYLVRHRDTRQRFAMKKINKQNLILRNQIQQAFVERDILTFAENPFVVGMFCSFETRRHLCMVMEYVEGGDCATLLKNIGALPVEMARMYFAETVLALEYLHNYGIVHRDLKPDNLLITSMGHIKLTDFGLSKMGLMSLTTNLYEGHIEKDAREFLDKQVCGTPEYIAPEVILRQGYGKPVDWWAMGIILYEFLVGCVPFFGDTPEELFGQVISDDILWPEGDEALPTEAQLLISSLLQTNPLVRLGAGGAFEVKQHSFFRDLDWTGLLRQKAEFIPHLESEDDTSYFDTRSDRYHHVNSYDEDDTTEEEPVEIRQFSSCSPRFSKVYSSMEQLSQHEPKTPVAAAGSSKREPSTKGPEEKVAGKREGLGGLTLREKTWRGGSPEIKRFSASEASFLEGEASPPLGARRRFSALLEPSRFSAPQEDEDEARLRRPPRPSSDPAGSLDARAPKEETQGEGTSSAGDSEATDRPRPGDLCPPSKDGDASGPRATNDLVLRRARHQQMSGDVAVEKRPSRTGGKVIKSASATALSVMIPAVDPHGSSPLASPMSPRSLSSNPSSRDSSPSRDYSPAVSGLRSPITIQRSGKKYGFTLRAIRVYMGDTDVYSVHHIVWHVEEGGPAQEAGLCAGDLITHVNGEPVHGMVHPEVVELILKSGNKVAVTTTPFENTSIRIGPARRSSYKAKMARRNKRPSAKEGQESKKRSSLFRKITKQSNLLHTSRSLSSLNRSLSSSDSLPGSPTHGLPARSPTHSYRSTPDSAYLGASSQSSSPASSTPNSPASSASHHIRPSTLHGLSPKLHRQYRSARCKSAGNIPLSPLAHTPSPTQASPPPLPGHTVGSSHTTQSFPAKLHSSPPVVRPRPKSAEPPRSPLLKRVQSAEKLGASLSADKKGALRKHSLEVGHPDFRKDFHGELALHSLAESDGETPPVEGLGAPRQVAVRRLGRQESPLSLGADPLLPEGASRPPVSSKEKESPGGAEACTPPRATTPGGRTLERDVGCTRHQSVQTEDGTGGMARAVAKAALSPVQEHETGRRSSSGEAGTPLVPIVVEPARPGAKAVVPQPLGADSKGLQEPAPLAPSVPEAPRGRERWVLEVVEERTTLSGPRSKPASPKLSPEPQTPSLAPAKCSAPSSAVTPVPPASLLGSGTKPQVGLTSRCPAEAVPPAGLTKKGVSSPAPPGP

Compound | inhibition [1] [%] | inhibition [2] [%] | inhibition [3] [%] | Activity [4] | inhibition [5] [%] | inhibition [6] [%] | inhibition [7] [%] | IC50 [8] [nM] | inhibition [9] [%] | inhibition [10] [%] | inhibition [11] [%] | inhibition [12] [%] | inhibition [13] [%] | inhibition [14] [%] | inhibition [15] [%] | inhibition [16] [%] | inhibition [17] [%]
Nc1ncc(-c2cccc3ncsc23)cc1-c1ccc2c(c1)CCNC2=O | 50 | 0 | < 75 | Active | 0 | 0 | 50 | 40 | 0 | 0 | – | – | – | – | – | – | –
Nc1ncc(-c2cccc([N+](=O)[O-])c2F)cc1-c1ccc2c(c1)CCNC2=O | – | – | – | Active | 0 | – | – | < 40 | – | 0 | – | – | – | – | – | – | –
CN(C1CC1)S(=O)(=O)c1ccc(-c2cnc(N)c(-c3ccc4c(c3)CCNC4=O)c2)c(F)c1 | 0 | 0 | < 90 | Active | < 90 | 0 | 0 | < 40 | 0 | 0 | – | – | – | – | – | – | –
Nc1ncc(-c2ccc(NS(=O)(=O)C3CC3)cc2OC2CCCCC2)cc1-c1ccc2c(c1)CCNC2=O | 0 | – | 0 | – | – | – | 0 | – | – | – | > 90 | 0 | 0 | > 90 | 0 | 0 | 0
Nc1ncc(-c2ccc(NS(=O)(=O)C3CC3)cc2F)cc1-c1ccc2c(c1)CCNC2=O | 0 | – | 0 | – | < 75 | 0 | 0 | – | 0 | – | 0 | 0 | 0 | 0 | 0 | 0 | 0
COc1cc(NS(=O)(=O)C2CC2)ccc1-c1cnc(N)c(-c2ccc3c(c2)CCNC3=O)c1 | 0 | 0 | – | – | 0 | 0 | – | – | 0 | – | 75 | 0 | 0 | 75 | 0 | 0 | 0
